{"source": "patent US20230002324A1", "about": "“NAPHTHOQUINONE DERIVATIVES FOR TREATMENT OF OXIDATIVE STRESS DISORDERS” (PTC THERAPEUTICS, INC., priority 2019, published 2023)", "data": [{"tested_on": "Q7 cells (ST HDH Q7/7; immortalized mouse striatal cells)", "experiment": "Q7 Cystine Deprivation cell survival (rescue) assay", "type": "cell-based", "details": "Q7 cells, cystine-free medium, 18 h, Cell Titer Glo, 50% relative viability vs Vitamin K2 (1 micromolar), read-out: Q7 Cystine Deprivation Survival EC50", "from_the_text": "(§1) In neuronal cells excess extracellular glutamate inhibits the cystine/glutamate antiporter leading to intracellular cysteine depletion, GSH depletion, reactive oxygen species (ROS) production and cell death, a phenomenon termed oxidative glutamate toxicity, oxytosis, or ferroptosis. […] Q7 cells (ST HDH Q7/7; immortalized mouse striatal cells) challenged with cystine-free media or the selective, irreversible GPX4 inhibitor, methyl (1S,3R)-2-(2-chloroacetyl)-1-(4-(methoxycarbonyl)phenyl)-2,3,4,9-tetrahydro-1H-pyrido[3,4-b]indole-3-carboxylate (hereafter referred to as RSL3), recapitulate this phenotype, as do normal human fibroblasts (NHF) challenged with RSL3. An initial screen was performed to identify compounds effective in rescuing Q7 and/or NHF cells from death resulting from cystine deprivation or RSL3 challenge. This method is further described in Yonezawa et al., J. Neurochem 67, 566-573 (1996), Li et al., J Neurosci., 23, 5816-5826 (2003), Yang and Stockwell, Chem Biol., 15: 234-45 (2008), and Yang et al., Cell 156, 317-331 (2014). See also Hinman A, Holst C R, Latham J C, et al. Vitamin E hydroquinone is an endogenous regulator of ferroptosis via redox control of 15-lipoxygenase. PLoS One. 2018; 13(8):e0201369. Published 2018 Aug. 15. doi:10.1371/journal.pone.0201369; and Kahn-Kirby A H, Amagata A, Maeder C I, et al. Targeting ferroptosis: A novel therapeutic strategy for the treatment of mitochondrial disease-related epilepsy. PLoS One. 2019; 14(3):e0214250. Published 2019 Mar. 28. doi:10.1371/journal.pone.0214250.\n(§2) DMEM (Catalog no. 11995-040), DMEM without Cystine (Catalog no. 21013-024), DMEM without Glucose (Catalog A1443001), PBS (Phosphate buffered saline), Penicillin-streptomycin mix, L-Glutamine, Glucose, Phenol Red, and Pyruvate were purchased from ThermoFisher Scientific (Gibco). Fetal Bovine Serum was obtained from Mediatech, Inc., or Sigma Aldrich. Mouse striatum derived ST HDH Q7/7 (Q7) and normal human skin fibroblast (NHF, product number GM21811) cells were obtained from the Coriell Institute. Methionine and Vitamin K2 were purchased from Sigma Aldrich. RSL3 was synthesized as previously described (see e.g. US Patent Publication US2010/0081654). Cell Titer Glo 2.0 was purchased from Promega. Q7 cell culture medium (Q7 growth medium) was made by combining 50 mL Fetal Bovine Serum, 100 U/mL penicillin, and 100 microgram/mL streptomycin; DMEM was added to make the volume up to 500 mL. Assay medium for the Cystine Deprivation assay was prepared by combining 50 mL Fetal Bovine Serum, 100 U/mL penicillin, 100 microgram/mL streptomycin, 4 mM L-Glutamine, 1 mM Pyruvate and 30 mg/L Methionine; DMEM without Cystine was added to make the volume up to 500 mL. NHF cell culture medium (NHF growth medium) was made by combining 50 mL Fetal Bovine Serum, 100 U/mL penicillin, 100 microgram/mL streptomycin, 2.8 mL 20% Glucose solution (final concentration 6 mM), L-glutamine (final concentration 2 mM), phenol red (final concentration 15 mg/L); DMEM without Glucose was added to make the volume up to 500 mL. Assay medium for the RSL3 challenge assay was identical to Growth medium. While not in use during the course of the experiments, these solutions were stored at 4° C. The cells were grown in 150-cm^2 tissue culture-treated flasks. Every third or fourth day, the cells were sub-cultured by trypsinization and re-seeded at a cell density of 600,000 (Q7) or 300,000 (NHF) cells per flask.\n(§3) Q7 or NHF cells were cultured routinely as described herein. For 384-well cell survival assays, cells were seeded in clear bottom, black wall 384-well tissue culture-treated polystyrene plates by re-suspending a cell suspension at a density of 50,000 cells/mL in growth medium, then dispensing 60 microliters of cell suspension per well using either an electronic multichannel pipette or a Multidrop™ Combi Reagent Dispenser (ThermoFisher Scientific), corresponding to 3,000 cells/well. […]", "units": {"EC50": "nM"}, "values": [{"molecule": "CC1=C(Cc2ccc(C(N)=O)nn2)C(=O)c2ccccc2C1=O", "note": "[Example 14, 6-((3-methyl-1,4-dioxo-1,4-dihydronaphthalen-2-yl)methyl)pyridazine-3-carboxamide]", "EC50": "< 50"}, {"molecule": "COc1nnc(CC2=C(C)C(=O)c3ccccc3C2=O)cc1C", "note": "[Example 18, 2-((6-methoxy-5-methylpyridazin-3-yl)methyl)-3-methylnaphthalene-1,4-dione]", "EC50": "> 1000"}, {"molecule": "CCCC1=C(Cc2cc(C#N)c(F)cn2)C(=O)c2ccccc2C1=O", "note": "[Example 110, 2-((1,4-dioxo-3-propyl-1,4-dihydronaphthalen-2-yl)methyl)-5-fluoroisonicotinonitrile]", "EC50": "< 50"}, {"molecule": "CC(C)CCC1=C(Cc2ccc(C(F)(F)F)cn2)C(=O)c2ccccc2C1=O", "note": "[Example 34, 2-isopentyl-3-((5-(trifluoromethyl)pyridin-2-yl)methyl)naphthalene-1,4-dione]", "EC50": "50 to 250"}, {"molecule": "Cc1ccc(CC2=C(C3CC3)C(=O)c3ccccc3C2=O)nc1", "note": "[Example 38, 2-cyclopropyl-3-((5-methylpyridin-2-yl)methyl)naphthalene-1,4-dione]", "EC50": "< 50"}]}, {"tested_on": "normal human fibroblasts (NHF, GM21811)", "experiment": "NHF GM21811 RSL3 challenge cell survival (rescue) assay", "type": "cell-based", "details": "Fibroblast, NHF cells, RSL3 2 micromolar, 48 h, Cell Titer Glo, read-out: NHF GM21811 RSL3 Survival EC50", "from_the_text": "as §1, §2, §3", "units": {"EC50": "nM"}, "values": [{"molecule": "CCC1=C(Cc2ccc(C(F)(F)F)c(C#N)n2)C(=O)c2c(F)cc(F)cc2C1=O", "note": "[Example 93, 6-((3-ethyl-6,8-difluoro-1,4-dioxo-1,4-dihydronaphthalen-2-yl)methyl)-3-(trifluoromethyl)picolinonitrile]", "EC50": "< 50"}, {"molecule": "CCC1=C(Cc2cc(C(F)(F)F)c(C)cn2)C(=O)c2ccccc2C1=O", "note": "[Example 149, 2-ethyl-3-((5-methyl-4-(trifluoromethyl)pyridin-2-yl)methyl)naphthalene-1,4-dione]", "EC50": "< 50"}, {"molecule": "O=C1C(C2CC2)=C(Cc2ccc(C(F)(F)F)cn2)C(=O)c2c(F)cc(F)cc21", "note": "[Example 65, 2-cyclopropyl-5,7-difluoro-3-((5-(trifluoromethyl)pyridin-2-yl)methyl)naphthalene-1,4-dione]", "EC50": "< 50"}, {"molecule": "CCC1=C(Cc2ccc(OC(F)(F)F)cn2)C(=O)c2c(F)ccc(F)c2C1=O", "note": "[Example 138, 2-ethyl-5,8-difluoro-3-((5-(trifluoromethoxy)pyridin-2-yl)methyl)naphthalene-1,4-dione]", "EC50": "< 50"}, {"molecule": "CCC1=C(Cc2ccc(C(C)(F)F)cn2)C(=O)c2c(F)ccc(F)c2C1=O", "note": "[Example 62, 2-((5-(1,1-difluoroethyl)pyridin-2-yl)methyl)-3-ethyl-5,8-difluoronaphthalene-1,4-dione]", "EC50": "< 50"}, {"molecule": "CCC1=C(Cc2ccc(C(F)(F)F)c(C)n2)C(=O)c2c(F)ccc(F)c2C1=O", "note": "[Example 139, 2-ethyl-5,8-difluoro-3-((6-methyl-5-(trifluoromethyl)pyridin-2-yl)methyl)naphthalene-1,4-dione]", "EC50": "< 50"}, {"molecule": "CCC1=C(Cc2cc(C(F)(F)F)c(C)cn2)C(=O)c2c(F)ccc(F)c2C1=O", "note": "[Example 66, 2-ethyl-5,8-difluoro-3-((5-methyl-4-(trifluoromethyl)pyridin-2-yl)methyl)naphthalene-1,4-dione]", "EC50": "< 50"}, {"molecule": "O=C1C(Cc2ccc(C(F)(F)F)cn2)=C(C2CC2)C(=O)c2c(F)ccc(F)c21", "note": "[Example 91, 2-cyclopropyl-5,8-difluoro-3-((5-(trifluoromethyl)pyridin-2-yl)methyl)naphthalene-1,4-dione]", "EC50": "< 50"}, {"molecule": "CCC1=C(Cc2ncc(C(F)(F)F)cc2Cl)C(=O)c2c(F)cc(F)cc2C1=O", "note": "[Example 94, 3-((3-chloro-5-(trifluoromethyl)pyridin-2-yl)methyl)-2-ethyl-5,7-difluoronaphthalene-1,4-dione]", "EC50": "< 50"}, {"molecule": "CCC1=C(Cc2ccc(C(F)(F)C(F)(F)F)cn2)C(=O)c2c(F)ccc(F)c2C1=O", "note": "[Example 141, 2-ethyl-5,8-difluoro-3-((5-(perfluoroethyl)pyridin-2-yl)methyl)naphthalene-1,4-dione]", "EC50": "< 50"}, {"molecule": "CCC1=C(Cc2ccc(F)c(C#N)n2)C(=O)c2c(F)ccc(F)c2C1=O", "note": "[Example 132, 6-((3-ethyl-5,8-difluoro-1,4-dioxo-1,4-dihydronaphthalen-2-yl)methyl)-3-fluoropicolinonitrile]", "EC50": "< 50"}, {"molecule": "CCC1=C(Cc2ccc(C)c(OC)n2)C(=O)c2c(F)ccc(F)c2C1=O", "note": "[Example 97, 2-ethyl-5,8-difluoro-3-((6-methoxy-5-methylpyridin-2-yl)methyl)naphthalene-1,4-dione]", "EC50": "< 50"}, {"molecule": "CCC1=C(Cc2ccc(C(F)F)cn2)C(=O)c2c(F)ccc(F)c2C1=O", "note": "[Example 136, 2-((5-(difluoromethyl)pyridin-2-yl)methyl)-3-ethyl-5,8-difluoronaphthalene-1,4-dione]", "EC50": "< 50"}, {"molecule": "CCC1=C(Cc2cc(C)c(F)cn2)C(=O)c2c(F)ccc(F)c2C1=O", "note": "[Example 135, 2-ethyl-5,8-difluoro-3-((5-fluoro-4-methylpyridin-2-yl)methyl)naphthalene-1,4-dione]", "EC50": "< 50"}, {"molecule": "N#Cc1nc(CC2=C(C3CC3)C(=O)c3cc(F)ccc3C2=O)ccc1C(F)(F)F", "note": "[Example 96, 6-((3-cyclopropyl-6-fluoro-1,4-dioxo-1,4-dihydronaphthalen-2-yl)methyl)-3-(trifluoromethyl)picolinonitrile]", "EC50": "< 50"}, {"molecule": "CCC1=C(Cc2ccc(C(F)F)cn2)C(=O)c2c(F)cc(F)cc2C1=O", "note": "[Example 67, 3-((5-(difluoromethyl)pyridin-2-yl)methyl)-2-ethyl-5,7-difluoronaphthalene-1,4-dione]", "EC50": "< 50"}, {"molecule": "CCC1=C(Cc2cccc(OC)n2)C(=O)c2c(F)ccc(F)c2C1=O", "note": "[Example 89, 2-ethyl-5,8-difluoro-3-((6-methoxypyridin-2-yl)methyl)naphthalene-1,4-dione]", "EC50": "< 50"}, {"molecule": "[2H]C([2H])([2H])C1=C(Cc2ccc(C(F)(F)F)c(C(N)=O)n2)C(=O)c2c(F)ccc(F)c2C1=O", "note": "[Example 126, 6-((5,8-difluoro-3-(methyl-d3)-1,4-dioxo-1,4-dihydronaphthalen-2-yl)methyl)-3-(trifluoromethyl)picolinamide]", "EC50": "< 50"}, {"molecule": "CCC1=C(Cc2cc(C)c(F)cn2)C(=O)c2ccccc2C1=O", "note": "[Example 146, 2-ethyl-3-((5-fluoro-4-methylpyridin-2-yl)methyl)naphthalene-1,4-dione]", "EC50": "< 50"}, {"molecule": "CCC1=C(Cc2cc(C(F)(F)F)c(OC)cn2)C(=O)c2ccccc2C1=O", "note": "[Example 147, 2-ethyl-3-((5-methoxy-4-(trifluoromethyl)141yridine-2-yl)methyl)naphthalene-1,4-dione]", "EC50": "< 50"}, {"molecule": "CC1=C(Cc2ccc(C(F)(F)F)c[n+]2[O-])C(=O)c2ccccc2C1=O", "note": "[Example 150, 2-((3-methyl-1,4-dioxo-1,4-dihydronaphthalen-2-yl)methyl)-5-(trifluoromethyl)pyridine 1-oxide]", "EC50": "< 50"}, {"molecule": "CCC1=C(Cc2ncc(C(F)(F)F)cc2F)C(=O)c2c(F)cc(F)cc2C1=O", "note": "[Example 64, 2-ethyl-5,7-difluoro-3-((3-fluoro-5-(trifluoromethyl)pyridin-2-yl)methyl)naphthalene-1,4-dione]", "EC50": "< 50"}, {"molecule": "CCC1=C(Cc2ccc(CC(F)(F)F)cn2)C(=O)c2c(F)ccc(F)c2C1=O", "note": "[Example 133, 2-ethyl-5,8-difluoro-3-((5-(2,2,2-trifluoroethyl)pyridin-2-yl)methyl)naphthalene-1,4-dione]", "EC50": "< 50"}]}]}
